Measured values from article PMC11022698, “Precisely Activating cGAS‐STING Pathway with a Novel Peptide‐Based Nanoagonist to Potentiate Immune Checkpoint Blockade Cancer Immunotherapy” (Advanced Science, 2024).

Assays:
B16F10 cells [1] = assay: mtDNA leakage assay, immunofluorescence of dsDNA Marker and anti-TOMM20 (CLSM); type: cell-based; conditions: KLA-treated B16F10 cells, n = 3
Protocol: The endosomal escape ability of MAPN was study by analyzing the colocolization of endosomes and KLA after internalizing into cells. Briefly, B16F10 cells were seeded […]
overnight for cell attachment. KLA was labeled with FITC. The cells were incubated […]
H2O2 (100 μM) for 4 h. After 1 h, 3 h, and 6 h incubation, endosomes were stained with LysoTracker probe (red) according to manufacture’s instruction. The cells were then […]
at room temperature, and counterstained with DAPI for the easy observation of cell […]
In Vitro PD-1/PD-L1 Pathway Blockade
MAPN-mediated PD-1/PD-L1 pathway blockade was evaluated with anti-PD-L1 (sc-518027, Santa Cruz, USA) staining. Briefly, B16F10 cells were seeded at a density […]
at room temperature, and then stained with Alexa Fluor 594 (red) labeled anti -PD-L1 […]
B16F10 cells were seeded at a density of 1×10^4 cells per well in 35 mm confocal dish (Ф =15 mm) and incubated overnight for cell attachment. The cells were incubated […]
without H2O2 (100 μM) for 24 h. After washing with PBS, the cells were permeabilized, and incubated with Anti-TOMM20 antibodies (GB111481, Servicebio, China) and dsDNA Marker (sc-58749, Santa Cruz, USA) at 4 °C overnight, and then incubated with secondary antibodies for 2 h and counterstained with DAPI. All the cells were observed using a CLSM (Zeiss, Germany).
The qPCR Quantification of Cytosolic mtDNA

[2] = test system: B16F10 tumor-bearing C57BL/6 mouse model; assay: Anti-tumor immune responses after i.t. or i.v. injection of AMPs; type: in vivo, C57BL/6 mice; conditions: 7.5 mg kg^-1; for DCs maturation (CD80+ CD86+ CD11c+ cells) in lymph nodes: representative flow cytometric plot
Protocol: Next, the B16F10 tumor‐bearing C57BL/6 mouse model was established to investigate whether KLA can initiate efficient anti‐tumor immune responses by activating the cGAS‐STING pathway. The KLA was administrated either through intratumoral (i.t.) or intravenous (i.v.) injection at the dose of 7.5 mg kg^−1, 17BIPHE2 and CGA‐N12 were employed as comparative groups.

cGAS-STING pathway [3] = assay: Western blot of p-STING, p-TBK1 and p-IRF3 in B16F10 cells; type: cell-based; conditions: 40 µM, n = 3
Protocol: (§1) B16F10 cells were seeded in a 12-well plate at a density of 5×10^4 cells per well and […]
(§2) with PBS, the cells were collected by centrifugation. Cytosolic mtDNA was […] using a Cell Mitochondria Isolation Kit (C3601, Beyotime, China), and the DNA was then extracted with a TIANamp Genomic DNA kit (DP304, Tiangen Biotech, China) following the manufacturer’s protocol. The mtDNA D-Loop primers were synthesized by GenePharma Biotech (detailed sequences in Table S3, Supporting Information), and then quantified with Multiplex PCR Kit (PM101, Novoprotein , Shanghai, China) using Quantitative Real-Time PCR Detection System (Bio-Rad, CFX96, USA).
(§3) Caspase-9 and Caspase-3 Activity Assay
(§4) The B16F10 cells were seeded into a 6-well plate at the density of 2×10^5 cells per […]
(§5) cells were rinsed with PBS for three times and then treated with lysis buffer solution in ice bath for 1 h. Cell lysates were centrifuged at 12000 rpm for 5 min at 4 °C, and the supernatant was collected. The supernatant was incubated with caspase-9 or caspase-3 substrate at 37 °C in dark for 12 h. The activities of caspase-9 and caspase-3 were […]
(§6) Evaluation of cGAS-STING Pathway Activation
(§7) Western bolt was employed to evaluate the MAPN-mediated activation of cGAS-STING pathway. Briefly, B16F10 cells were first seeded into 24-well plates at 2×104 […]
(§8) culture medium with or without H2O2 (100 μM). […]

B16F10 cells [4] = assay: qRT-PCR quantification of cytosolic mtDNA; type: cell-based; conditions: n = 3
Protocol: as §1, §2, §3, §4, §5, §6, §7, §8

cGAS-STING pathway [5] = assay: Secretion levels of cGAMP and IFN-β in B16F10 cells; type: cell-based; conditions: KLA-treated B16F10 cells; n = 3

For “KLAKLAK2 [model antimicrobial peptide that promotes mtDNA leakage by changing mitochondrial inner membrane permeability]”, the “Pearson correlation coefficient of dsDNA and mitochondria (TOMM20)” value (B16F10 cells [1]) was 0.464, the “DCs maturation, fold over PBS treatment” value ([2]; i.t. injection, n = 6) was 2.53 fold and the “pro-inflammatory cytokines (IFN-β, IFN-γ, TNF-α, IL-6, IL-12) in tumor tissues compared with other groups” value ([2]; i.t. injection, n = 6) was “significantly higher levels”. For the same substance, the “tumor-infiltrating CD8+ T cells, fold over PBS treatment” value ([2]; i.t. injection, n = 6) was 2.36 fold, the “DCs maturation (CD80+ CD86+ CD11c+ cells) in lymph nodes” value ([2]; i.t. injection) was 31.4% and the “initiation of systemic anti-tumor immune responses” value ([2]; i.v. injection) was “weak effect”. For the same substance, the “DCs maturation (CD80+ CD86+ CD11c+ cells) in lymph nodes” value ([2]; i.v. injection) was 17.9%, the “phosphorylation levels of STING, TBK1, and IRF3 proteins” value (cGAS-STING pathway [3]) was “remarkably increased” and the “cytosolic mtDNA level, fold over 17BIPHE2-treated cells” value (B16F10 cells [4]) was 2.41 fold. For the same substance, the “cytosolic mtDNA level, fold over CGA-N12-treated cells” value (B16F10 cells [4]) was 1.87 fold, the “IFN-β level, fold over PBS-treated cells” value (cGAS-STING pathway [5]) was 2.03 fold and the “cGAMP level, fold over PBS-treated cells” value (cGAS-STING pathway [5]) was 1.85 fold.
